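Growth conditions: 96-well plates. Treatment: test compound, 48 hours, 5 concentrations. Analysis: linear interpolation between bracketing concentrations; unreached endpoints set to highest concentration. Abbreviation: GI50, concentration required for 50% inhibition of growth. The concentration for full growth arrest is given as TGI.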
What was measured:
Test in all cases: inhibition of tumour cell growth, NCI panel, 48 h
[1] = test system: 786-0 renal
[2] = test system: A498 renal
[3] = test system: A549 NSCLC
[4] = test system: ACHN renal
[5] = test system: BT-549 breast
[6] = test system: CAKI-1 renal
[7] = test system: CCRF-CEM leukemia
[8] = test system: COLO 205 colon
[9] = test system: DU-145 prostate
[10] = test system: EKVX NSCLC
[11] = test system: HCC-2998 colon
[12] = test system: HCT-116 colon
[13] = test system: HCT-15 colon
[14] = test system: HL-60(TB) leukemia
[15] = test system: HOP-62 NSCLC
[16] = test system: HOP-92 NSCLC
[17] = test system: HS 578T breast
[18] = test system: HT29 colon
[19] = test system: IGROV1 ovarian
[20] = test system: K-562 leukemia
[21] = test system: KM12 colon
[22] = test system: LOX IMVI melanoma
[23] = test system: M14 melanoma
[24] = test system: MALME-3M melanoma
[25] = test system: MCF7 breast
[26] = test system: MDA-MB-231 breast
[27] = test system: MDA-MB-435
[28] = test system: MOLT-4 leukemia
[29] = test system: NCI-H226 lung
[30] = test system: NCI-H23 lung
[31] = test system: NCI-H460 lung
[32] = test system: NCI-H522 lung
[33] = test system: NCI/ADR-RES ovarian
[34] = test system: OVCAR-3 ovarian
[35] = test system: OVCAR-4 ovarian
[36] = test system: OVCAR-5 ovarian
[37] = test system: OVCAR-8 ovarian
[38] = test system: PC-3 prostate
[39] = test system: RPMI-8226 leukemia
[40] = test system: RXF 393 renal
[41] = test system: SF-268 CNS
[42] = test system: SF-295 CNS
[43] = test system: SF-539 CNS
[44] = test system: SK-MEL-2 melanoma
[45] = test system: SK-MEL-28 melanoma
[46] = test system: SK-MEL-5 melanoma
[47] = test system: SK-OV-3 ovarian
[48] = test system: SN12C renal
[49] = test system: SNB-19 CNS
[50] = test system: SNB-75 CNS
[51] = test system: SR leukemia
[52] = test system: SW-620 colon
[53] = test system: T-47D breast
[54] = test system: TK-10 renal
[55] = test system: U251 CNS
[56] = test system: UACC-257 melanoma
[57] = test system: UACC-62 melanoma
[58] = test system: UO-31 renal

Q: What does the source list for `CC(C)[C@@H]1CC[C@@H]2[C@@H]1[C@H](OC(=O)/C=C/c1ccccc1)[C@]1(C(C)C)C[C@@H](OC(=O)CO)[C@@]2(C)O1`?
A: GI50 [1]: 4.55 µM; TGI [1]: 9.23 µM; GI50 [2]: 0.00806 µM; TGI [2]: 0.0288 µM; GI50 [3]: 6.61 µM; TGI [3]: 14.4 µM; GI50 [4]: 0.00824 µM; TGI [4]: 4.25 µM; GI50 [5]: 0.0375 µM; TGI [5]: 4.38 µM; GI50 [6]: 0.133 µM; TGI [6]: 6.73 µM; GI50 [7]: 6.9 µM; TGI [7]: 15.2 µM; GI50 [8]: 6.12 µM; TGI [8]: 12.8 µM; GI50 [9]: 7.02 µM; TGI [9]: 13.4 µM; GI50 [10]: 4.34 µM; TGI [10]: 8.8 µM; GI50 [11]: 6.35 µM; TGI [11]: 11.7 µM; GI50 [12]: 5.79 µM; TGI [12]: 11.3 µM; GI50 [13]: 4.72 µM; TGI [13]: 10 µM; GI50 [14]: 8.07 µM; TGI [14]: 18.4 µM; GI50 [15]: 6.45 µM; TGI [15]: 14.5 µM; GI50 [16]: 4.34 µM; TGI [16]: 8.88 µM; GI50 [17]: 0.00325 µM; TGI [17]: 0.0136 µM; GI50 [18]: 6.92 µM; TGI [18]: 14.4 µM; GI50 [19]: 6.79 µM; TGI [19]: 12.5 µM; GI50 [20]: 10.4 µM; TGI [20]: 24.1 µM; GI50 [21]: 7.07 µM; TGI [21]: 14.6 µM; GI50 [22]: 5.36 µM; TGI [22]: 10.2 µM; GI50 [23]: 5.83 µM; TGI [23]: 12.1 µM; GI50 [24]: 5.97 µM; TGI [24]: 11.1 µM; GI50 [25]: 4.88 µM; TGI [25]: 10.5 µM; GI50 [26]: 5.38 µM; TGI [26]: 10.4 µM; GI50 [27]: 5.65 µM; TGI [27]: 10.6 µM; GI50 [28]: 6.94 µM; TGI [28]: 14.9 µM; GI50 [29]: 5.27 µM; TGI [29]: 10.9 µM; GI50 [30]: 6.88 µM; TGI [30]: 14.1 µM; GI50 [31]: 6.15 µM; TGI [31]: 11.7 µM; GI50 [32]: 6.19 µM; TGI [32]: 13.2 µM; GI50 [33]: 0.0795 µM; TGI [33]: 5 µM; GI50 [34]: 6.69 µM; TGI [34]: 11.9 µM; GI50 [35]: 5.15 µM; TGI [35]: 9.93 µM; GI50 [36]: 5.15 µM; TGI [36]: 10.2 µM; GI50 [37]: 0.0259 µM; TGI [37]: 9.86 µM; GI50 [38]: 5.31 µM; TGI [38]: 12.2 µM; GI50 [39]: 7.44 µM; TGI [39]: 16.5 µM; GI50 [40]: 3.31 µM; TGI [40]: 8.31 µM; GI50 [41]: 4.02 µM; TGI [41]: 9.03 µM; GI50 [42]: 5.07 µM; TGI [42]: 9.56 µM; GI50 [43]: 5.25 µM; TGI [43]: 10.2 µM; GI50 [44]: 7.71 µM; TGI [44]: 17.6 µM; GI50 [45]: 4.89 µM; TGI [45]: 9.87 µM; GI50 [46]: 5.96 µM; TGI [46]: 10.8 µM; GI50 [47]: 10.3 µM; TGI [47]: 32.5 µM; GI50 [48]: 3.39 µM; TGI [48]: 8.04 µM; GI50 [49]: 5.37 µM; TGI [49]: 10.8 µM; GI50 [50]: 3.46 µM; TGI [50]: 8.5 µM; GI50 [51]: 7.91 µM; TGI [51]: 18.7 µM; GI50 [52]: 6.26 µM; TGI [52]: 12.9 µM; GI50 [53]: 5.27 µM; TGI [53]: 12.5 µM; GI50 [54]: 6.46 µM; TGI [54]: 15.4 µM; GI50 [55]: 5.54 µM; TGI [55]: 10.6 µM; GI50 [56]: 7.83 µM; TGI [56]: 17.6 µM; GI50 [57]: 4.94 µM; TGI [57]: 9.97 µM; GI50 [58]: 0.011 µM; TGI [58]: 0.0857 µM
